The record followed here is patent US20240342242A1, “COMPOSITIONS AND METHODS FOR TREATING MASTITIS” (Zoetis Services LLC, priority 2021, published 2024).

This test concerns Escherichia coli. In words: E. coli intramammary challenge in lactating dairy cows, CATH2 and analogs, Example 2. It counts as in vivo, Holstein cows. As to conditions: for overall protection against mastitis following IMM challenge with E. coli / intramammary infection observed / animals meeting criteria for clinical mastitis: 50 mg/10 mL; for intramammary infection observed: 4 treatments prior to challenge, vehicle 100%; for animals meeting criteria for clinical mastitis: 4 treatments twice daily for 2 days prior to challenge, vehicle 100.0%, FIG. 9; for milk concentrations of BSA, milk haptoglobin, milk amyloid A, IL-1 beta, IL-6, IL-8, IL-10 and TNFα: FIGS. 13-20. The text has this: The objective of this study was to evaluate the efficacy of Cathelicidin-2 peptide analogs for reduction of incidence of clinical mastitis and severity of infection following Escherichia coli intramammary (IMM) infusion in lactating dairy cows. Healthy Holstein cows in their second or third lactation were selected based on culture negative results for mastitis pathogens and low somatic cell counts≤200,000. Enrolled animals were randomly assigned to treatment. Cows were commingled, housed and fed according to standard site procedures, and fitted with sensors to monitor activity. Cows were milked twice daily at regular intervals. The assigned treatment was administered following am and pm milkings starting 2 days prior to challenge. Four total treatments and the challenge were administered in the left front quarter. Treatment was administered twice daily for 2 days prior to challenge. The E. coli challenge material was administered to the treated quarter on the morning of Day 0 of study. The treatment regimen was designed to evaluate efficacy for prevention of the disease. All peptides were dosed at 50 mg/10 mL per dose. Milk samples were collected for analysis at 6-hour intervals on Day 0, and at each morning's milking from Day 1 through Day 7, and on Days 11 and 14.

As to “RCGRFLRKIRPFRRKVTITCQ [Analog 2, CATH2 1-21 analog]”, the “overall protection against mastitis following IMM challenge with E. coli” value is reported as “Relatively limited protection against mastitis”; the intramammary infection observed is listed as 94.74%; the “animals meeting criteria for clinical mastitis” value worked out at 95.74%; the “milk concentrations of BSA, milk haptoglobin, milk amyloid A, IL-1 beta, IL-6, IL-8, IL-10 and TNFα” value was “modulation on acute phase proteins and key cytokines”.
As to “RFGRWLRKIRRYRGKVTITIQ [Analog 1, CATH2 1-21 analog]”, the “overall protection against mastitis following IMM challenge with E. coli” value is given as “Relatively limited protection against mastitis”; the intramammary infection observed is reported as 94.74%; the “animals meeting criteria for clinical mastitis” value is 78.95%; the “milk concentrations of BSA, milk haptoglobin, milk amyloid A, IL-1 beta, IL-6, IL-8, IL-10 and TNFα” value is “modulation on acute phase proteins and key cytokines”.
